Laboratory results reported in patent US8389247B2, “Physiogenomic method for predicting diabetes and metabolic syndromes induced by psychotropic drugs” (priority 2006, dated 2013).

Assay: Outcome variables of patients on each psychotropic drug broken down by demographic factors (Covariates tables)
Format: in vivo, human
From the text: Various SNPs associated with, for example, the observation of various parameters of metabolic syndromes in patients on psychotropic drugs were screened. The endpoints analyzed were the blood levels of LDL, HDL, and glucose; blood pressure; body mass index; waist circumference; and metabolic syndromes index. The physiogenomic model was developed using the following procedure: 1) Establish a covariate model using only the demographic and clinical variables, 2) Screen for associated genetic markers by testing each SNP against the unexplained residual of the covariate model, and 3) Establish a revised model incorporating the significant associations from the SNP screen.

OCCOCCN1CCN(C2=Nc3ccccc3Sc3ccccc32)CC1 [Quetiapine, quetiapine]
LDL (LDL cholesterol level) (Age 20-30): 91.35
LDL (LDL cholesterol level) (Age 30-40): 102.92
LDL (LDL cholesterol level) (Age 40-50): 94.39
LDL (LDL cholesterol level) (Age 50-60): 97.33
LDL (LDL cholesterol level) (Age 60-70): 88.00
LDL (LDL cholesterol level) (Age <20): 87.40
LDL (LDL cholesterol level) (All patients on the drug): 96.71
LDL (LDL cholesterol level) (Gender female): 92.89
LDL (LDL cholesterol level) (Gender male): 99.19
LDL (LDL cholesterol level) (Heritage AA): 94.38
LDL (LDL cholesterol level) (Heritage Cauc.): 96.93
BM (human, in vivo): 87.05
BMI (human, in vivo): 29.44
Glucose (human, in vivo): 92.08
HDL (human, in vivo): 49.79
Log (TG) (human, in vivo): 5.263
MSI (human, in vivo): 0.2625
TC (human, in vivo): 192.33
dBP (human, in vivo): 75.04
sBP (human, in vivo): 120.07
LDL (patients on the named drug): 96.71

Cc1nc2n(c(=O)c1CCN1CCC(c3noc4cc(F)ccc34)CC1)CCCC2 [Risperidone, risperidone]
BM (Age 20-30): 77.82
BMI (Age 20-30): 25.55
Glucose (Age 20-30): 85.42
HDL (Age 20-30): 43.50
LDL (Age 20-30): 93.20
TC (Age 20-30): 166.80
Waist (Age 20-30): 92.78
dBP (Age 20-30): 75.20
log (TG) (Age 20-30): 4.801
sBP (Age 20-30): 116.80
BM (Age 30-40): 77.98
BMI (Age 30-40): 25.60
Glucose (Age 30-40): 93.38
HDL (Age 30-40): 52.19
LDL (Age 30-40): 92.69
TC (Age 30-40): 185.54
Waist (Age 30-40): 92.34
dBP (Age 30-40): 76.77
log (TG) (Age 30-40): 5.129
sBP (Age 30-40): 118.04
BM (Age 40-50): 77.81
BMI (Age 40-50): 25.80
Glucose (Age 40-50): 95.03
HDL (Age 40-50): 52.00
LDL (Age 40-50): 100.78
TC (Age 40-50): 181.71
Waist (Age 40-50): 97.23
dBP (Age 40-50): 75.10
log (TG) (Age 40-50): 4.888
sBP (Age 40-50): 115.73
BM (Age 50-60): 76.52
BMI (Age 50-60): 29.45
Glucose (Age 50-60): 109.00
HDL (Age 50-60): 59.50
LDL (Age 50-60): 85.80
TC (Age 50-60): 185.70
Waist (Age 50-60): 100.50
dBP (Age 50-60): 74.20
log (TG) (Age 50-60): 5.182
sBP (Age 50-60): 123.80
BM (Age 60-70): 87.60
BMI (Age 60-70): 26.40
Glucose (Age 60-70): 103.00
HDL (Age 60-70): 54.00
LDL (Age 60-70): 111.00
TC (Age 60-70): 191.00
Waist (Age 60-70): 103.00
dBP (Age 60-70): 80.00
log (TG) (Age 60-70): 4.875
sBP (Age 60-70): 118.00
BM (Age <20): 97.73
BMI (Age <20): 28.93
Glucose (Age <20): 91.67
HDL (Age <20): 60.00
LDL (Age <20): 113.00
TC (Age <20): 197.33
Waist (Age <20): 110.33
dBP (Age <20): 71.33
log (TG) (Age <20): 4.778
sBP (Age <20): 123.33
BM (All): 78.42
BMI (All): 26.16
Glucose (All): 94.14
HDL (All): 51.37
LDL (All): 96.18
TC (All): 180.69
Waist (All): 95.90
dBP (All): 75.40
log (TG) (All): 4.958
sBP (All): 117.58
BM (Gender female): 73.38
BMI (Gender female): 27.05
Glucose (Gender female): 91.57
HDL (Gender female): 55.74
LDL (Gender female): 94.32
TC (Gender female): 179.74
Waist (Gender female): 95.39
dBP (Gender female): 74.74
log (TG) (Gender female): 4.861
sBP (Gender female): 116.84
BM (Gender male): 81.45
BMI (Gender male): 25.62
Glucose (Gender male): 95.68
HDL (Gender male): 48.73
LDL (Gender male): 97.30
TC (Gender male): 181.27
Waist (Gender male): 96.20
dBP (Gender male): 75.79
log (TG) (Gender male): 5.017
sBP (Gender male): 118.03
BM (Heritage AA): 80.46
BMI (Heritage AA): 27.14
Glucose (Heritage AA): 115.56
HDL (Heritage AA): 58.50
LDL (Heritage AA): 95.50
TC (Heritage AA): 173.80
Waist (Heritage AA): 92.90
dBP (Heritage AA): 78.00
log (TG) (Heritage AA): 4.478
sBP (Heritage AA): 117.80
BM (Heritage Cauc.): 78.19
BMI (Heritage Cauc.): 26.05
Glucose (Heritage Cauc.): 92.00
HDL (Heritage Cauc.): 50.58
LDL (Heritage Cauc.): 96.25
TC (Heritage Cauc.): 181.45
Waist (Heritage Cauc.): 96.23
dBP (Heritage Cauc.): 75.11
log (TG) (Heritage Cauc.): 5.011
sBP (Heritage Cauc.): 117.56
BM (patients on the named drug): 78.42
BMI (patients on the named drug): 26.16
Glucose (patients on the named drug): 94.14
HDL (patients on the named drug): 51.37
LDL (patients on the named drug): 96.18
Log (TG) (patients on the named drug): 4.958
TC (patients on the named drug): 180.69
Waist (patients on the named drug): 95.90
dBP (patients on the named drug): 75.40
sBP (patients on the named drug): 117.58
